Series [1] in a line: Cytotoxicity against Cynomolgous monkey hepatocytes harboring Simian virus assessed as reduction in cell viability administered for 3 hrs followed by replacement with fresh medium containing compound for every 24 hrs by DAPI staining based analysis. Type of series: toxicity, Macaca fascicularis, Hepatocyte. The conditions noted are these: cynomolgus monkey.
The subject of another series is Plasmodium berghei. Kind of series: Antiplasmodial activity against hepatic stage of Plasmodium berghei ANKA sporozoites infected in Cynomolgous monkey hepatocytes harboring Simian virus assessed as reduction in parasite growth administered for 3 hrs followed by replacement with fresh medium containing compound for every 24 hrs by DAPI staining based analysis. The series is classed as functional, organism-based. Conditions: Hepatocyte.

The nature of series [2]: Stability in CD-1 mouse microsomes assessed as half-life in presence of NADP. The series is classed as ADME, Microsome.
A short description of series [3]: Stability in CD-1 mouse microsomes assessed as intrinsic clearance measured upto 40 mins in presence of NADP. The series is classed as ADME, Microsome.
A further series concerns Plasmodium falciparum. Kind of series: Antiplasmodial activity against erythrocytic stage of chloroquine, pyrimethamine and sulfadoxine resistant Plasmodium falciparum K1 infected in human erythrocytes assessed as reduction in parasite growth incubated for 72 hrs by SYBR green I fluorescence based spectrophotometric analysis. Type of series: functional, organism-based. The conditions noted are these: K1, Erythrocyte.

Series [4] in a line: Selectivity index, ratio of CC50 for cytotoxicity against human HepG2 cells to EC50 for antiplasmodial activity against erythrocytic stage of chloroquine, pyrimethamine and sulfadoxine resistant Plasmodium falciparum K1 infected in human erythrocytes. The conditions noted are these: read-out: Ratio CC50/EC50. Type of series: toxicity, cell-based.
A short description of series [5]: Cytotoxicity against human HepG2 cells assessed as reduction in cell viability incubated for 72 hrs by MTT assay. Type of series: toxicity, cell-based. (In general: Tetrazolium dyes change colour on reduction, which living cells bring about.)
Series [6] is described as follows: Solubility of compound in DMSO. The series is classed as physicochemical.
The target in series [7] is Voltage-gated inwardly rectifying potassium channel KCNH2 (Homo sapiens, UniProt Q12809). Kind of series: Inhibition of hERG incubated for 4 hrs by fluorescence polarization assay. The series is classed as toxicity. (In general: Block of hERG is tested as a sign of cardiac risk.)
Voltage-gated inwardly rectifying potassium channel KCNH2, sequence (Q12809 whole entry): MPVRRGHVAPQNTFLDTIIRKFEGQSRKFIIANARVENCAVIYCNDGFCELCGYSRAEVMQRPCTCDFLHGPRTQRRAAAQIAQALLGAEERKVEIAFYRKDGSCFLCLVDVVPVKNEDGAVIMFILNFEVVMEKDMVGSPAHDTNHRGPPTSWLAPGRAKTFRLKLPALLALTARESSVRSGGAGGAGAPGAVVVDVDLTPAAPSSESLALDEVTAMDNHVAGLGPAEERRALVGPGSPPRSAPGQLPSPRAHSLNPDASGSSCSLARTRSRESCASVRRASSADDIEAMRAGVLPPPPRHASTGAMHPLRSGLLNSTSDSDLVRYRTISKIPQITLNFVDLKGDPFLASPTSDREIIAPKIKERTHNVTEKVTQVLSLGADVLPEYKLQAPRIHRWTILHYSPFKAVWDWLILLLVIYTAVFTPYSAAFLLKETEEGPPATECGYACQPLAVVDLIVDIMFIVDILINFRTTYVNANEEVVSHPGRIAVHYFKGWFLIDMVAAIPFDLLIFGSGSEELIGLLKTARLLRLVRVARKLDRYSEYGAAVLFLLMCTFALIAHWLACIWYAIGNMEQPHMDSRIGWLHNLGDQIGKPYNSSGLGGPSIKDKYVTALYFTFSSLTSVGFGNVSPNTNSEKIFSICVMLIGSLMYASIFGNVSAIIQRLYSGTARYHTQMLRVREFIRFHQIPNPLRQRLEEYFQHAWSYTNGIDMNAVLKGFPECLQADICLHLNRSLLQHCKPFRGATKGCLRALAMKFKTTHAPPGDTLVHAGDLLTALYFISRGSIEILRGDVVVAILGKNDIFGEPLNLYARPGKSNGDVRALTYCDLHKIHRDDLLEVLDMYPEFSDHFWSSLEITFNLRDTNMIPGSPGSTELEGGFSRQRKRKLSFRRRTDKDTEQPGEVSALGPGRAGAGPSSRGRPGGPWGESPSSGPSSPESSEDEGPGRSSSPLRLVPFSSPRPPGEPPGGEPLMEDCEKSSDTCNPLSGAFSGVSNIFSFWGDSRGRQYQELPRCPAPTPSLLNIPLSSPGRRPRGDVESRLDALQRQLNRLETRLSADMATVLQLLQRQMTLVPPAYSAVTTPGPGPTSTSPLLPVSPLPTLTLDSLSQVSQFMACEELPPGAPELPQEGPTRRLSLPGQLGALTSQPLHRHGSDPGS
The nature of series [8]: Effective permeability of compound at pH 7.4 incubated for 4 hrs by PAMPA-GIT assay. Type of series: ADME. Conditions: read-out: Peff.
The nature of series [9]: Chromatographic hydrophobicity index, log D of the compound at pH 7.4 by HPLC analysis. The series is classed as physicochemical. The conditions noted are these: buffer.
A short description of series [10]: Solubility of compound in PBS at 1 mg incubated for 10 mins by HPLC analysis. Type of series: physicochemical.
A short description of series [11]: Effective permeability of compound at pH 5 incubated for 4 hrs by PAMPA-GIT assay. Type of series: ADME. The conditions noted are these: read-out: Peff. On the technique in general: PAMPA measures passive passage across an artificial lipid membrane.

Where only a bound is given, the exact number is not on record here.

As a reminder, the CC50 is the concentration giving 50% cytotoxicity. As a reminder, the EC50 is the midpoint of the concentration-response curve. What is called half-life is the time in which the quantity being followed falls by half. A word on the microsomal CLint: it is a measure of how fast metabolising enzymes remove a compound, apart from limits set by blood flow. For `Cc1ccc(-c2cc3nc(NC(C)C)[nH]c(=O)c3s2)cc1`, the half-maximal cytotoxic concentration (CC50) at 3 h in series [1] is more than 200 µM. The EC50 with Plasmodium berghei stood at 55.6 µM. In series [2], the half-life turned out to be 11 min. For the same compound, the microsomal CLint in [3] came to 214 µL/min/mg.
Take `Cc1ccc(-c2cc3nc(N)n(CCCN(C)C)c(=O)c3s2)cc1`: the EC50 with Plasmodium falciparum amounted to 9.8 µM. In addition, in series [4], the selectivity ratio stood at 0.42. For the same compound, the CC50 at 72 h in [5] was determined as 4.1 µM.
Take `Cc1ccc(-c2cc3nc(NC4CC4)[nH]c(=O)c3s2)cc1`: the CC50 at 3 h in [1] was more than 100 µM. Also, the concentration giving a half-maximal response (EC50) was 0.9 µM in the series with Plasmodium falciparum and 5.5 µM with Plasmodium berghei. In addition, the selectivity ratio in [4] came to 4.4. For the same compound, in series [5], the CC50 at 72 h amounted to 4 µM. Moreover, in [2], the half-life came out at 15 min. Also, the microsomal CLint in [3] came out at 136 µL/min/mg.
Consider `Cc1ccc(-c2cc3nc(N4CCN(C)CC4)[nH]c(=O)c3s2)cc1`, for which the 50% effective concentration (EC50) with Plasmodium falciparum was more than 25 µM. For the same compound, the selectivity ratio in [4] was less than 0.3. The CC50 at 72 h in series [5] amounted to 8.7 µM.
For `Cc1ccc(-c2cc3nc(N4CCCCC4)[nH]c(=O)c3s2)cc1`, the EC50 with Plasmodium falciparum was more than 25 µM. In addition, in series [5], the CC50 at 72 h is more than 3.1 µM.
A word on the solubility: it is the dissolved amount per volume that the medium holds. Consider `Cc1ccc(-c2cc3nc(N4CCC4)[nH]c(=O)c3s2)cc1`, for which the solubility entry in [6] was “Insoluble”.
Take `Cc1ccc(-c2cc3nc(N[C@H]4CCNC4)[nH]c(=O)c3s2)cc1`: the EC50 in the series with Plasmodium falciparum is more than 31.2 µM. Besides, the selectivity ratio in series [4] was less than 0.4. Besides, in series [5], the CC50 at 72 h was 13.2 µM.
On to `[2H]C([2H])([2H])C(Nc1nc2cc(-c3ccc(C)cc3)sc2c(=O)[nH]1)C([2H])([2H])[2H]`, for which the CC50 at 3 h in [1] was more than 100 µM. The EC50 with Plasmodium falciparum stood at 0.2 µM; in the series on Plasmodium berghei, 15.9 µM. Further, in [4], the selectivity ratio is more than 50. The CC50 at 72 h in series [5] was more than 10 µM. Besides, the half-life in [2] came out at 11 min. Also, the microsomal CLint in series [3] was determined as 214 µL/min/mg.
Consider `CCn1c(NC(C)(C)C)nc2cc(-c3ccc(C)cc3)sc2c1=O`, for which the EC50 in the series with Plasmodium falciparum was more than 12.5 µM. Besides, the selectivity ratio in series [4] came to 1.4. Moreover, the CC50 at 72 h in series [5] worked out at 5.8 µM.
Turning to `Cc1ccc(-c2cc3nc(NC(C)(C)C)n(C(C)C)c(=O)c3s2)cc1`, the EC50 in the series with Plasmodium falciparum was 4.2 µM. Moreover, the selectivity ratio in [4] is more than 0.9. The CC50 at 72 h in [5] was more than 3.9 µM.
On to `Cc1ccc(-c2cc3nc(N4CCCC4)[nH]c(=O)c3s2)cc1`, for which the CC50 at 3 h in series [1] was more than 200 µM. The EC50 in the series with Plasmodium falciparum was 1.4 µM; in the series on Plasmodium berghei it was more than 100 µM. For the same compound, the selectivity ratio in series [4] was more than 2.1. The CC50 at 72 h in [5] was more than 3.1 µM.
On to `Cc1ccc(-c2cc3nc(NC4CCCCC4)[nH]c(=O)c3s2)cc1`, for which, in the series with Plasmodium falciparum, the EC50 was more than 12.5 µM. Moreover, the CC50 at 72 h in series [5] is more than 12.5 µM.
As for `Cc1ccc(-c2cc3nc(NC(C)(C)C(F)(F)F)[nH]c(=O)c3s2)cc1`, the EC50 in the series on Plasmodium falciparum was more than 10 µM. For the same compound, in series [4], the selectivity ratio was more than 10. For the same compound, in series [5], the CC50 at 72 h turned out to be 23.9 µM.
Turning to `Cc1ccc(-c2cc3nc(NC4CCCC4)[nH]c(=O)c3s2)cc1`, the CC50 at 3 h in [1] was more than 100 µM. Also, the 50% effective concentration (EC50) is 1.4 µM in the series on Plasmodium falciparum and 10.5 µM with Plasmodium berghei. In [4], the selectivity ratio was more than 5.6. Further, the CC50 at 72 h in series [5] was more than 7.8 µM. In addition, the half-life in series [2] turned out to be 38 min. In addition, the microsomal CLint in series [3] came out at 58 µL/min/mg.
For `Cc1ccc(-c2cc3nc(N4CCOCC4)[nH]c(=O)c3s2)cc1`, the EC50 with Plasmodium falciparum was more than 10 µM. Besides, in [4], the selectivity ratio is less than 0.4. In addition, in series [5], the CC50 at 72 h stood at 3.6 µM.
Regarding `[2H]C([2H])([2H])C(Nc1nc2cc(-c3ccc(C)cc3)sc2c(=O)[nH]1)(C([2H])([2H])[2H])C([2H])([2H])[2H]`, in [1], the CC50 at 3 h is more than 100 µM. Also, the EC50 with Plasmodium falciparum stood at 0.1 µM; in the series on Plasmodium berghei it was 13.7 µM. Moreover, in series [4], the selectivity ratio turned out to be 149. Besides, in series [5], the CC50 at 72 h worked out at 17.9 µM. The half-life in series [2] is 8.5 min. Besides, the microsomal CLint in [3] stood at 209 µL/min/mg.
In the case of `Cc1ccc(-c2cc3nc(NC(C)(C)C)n(-c4ccccc4)c(=O)c3s2)cc1`, in the series on Plasmodium falciparum, the EC50 is more than 12.5 µM. For the same compound, the CC50 at 72 h in series [5] was more than 3.1 µM.
Turning to `Cc1ccc(-c2cc3nc(NC4CCC4)[nH]c(=O)c3s2)cc1`, the CC50 at 3 h in [1] is more than 100 µM. The EC50 came to 1.1 µM in the series on Plasmodium falciparum and 11.2 µM in the series on Plasmodium berghei. The selectivity ratio in series [4] came to 12.7. Also, in series [5], the CC50 at 72 h was found to be 14 µM. The half-life in series [2] came out at 29 min. For the same compound, in series [3], the microsomal CLint was found to be 78 µL/min/mg.
As for `Cc1ccc(-c2cc3nc(N)n(C)c(=O)c3s2)cc1`, the EC50 with Plasmodium falciparum is more than 25 µM. For the same compound, the CC50 at 72 h in [5] was more than 6.2 µM.
By IC50 is commonly meant the concentration needed to halve the response being measured. In [7], `Cc1ccc(-c2cc3nc(C(C)(C)C)[nH]c(=O)c3s2)cc1` registered an IC50 of more than 100 µM.
The chromatographic logD is lipophilicity estimated from chromatographic retention. In [7], `Cc1ccc(-c2cc3nc(NC4CCC4)[nH]c(=O)c3s2)cc1.Cl` had an IC50 of more than 100 µM. Moreover, the results for the Papp at 4 h in series [8] and in series [11] were 4.36 ×10⁻⁶ cm/s and 18.1 ×10⁻⁶ cm/s, respectively. This compound displayed a chromatographic logD in series [9] of 3.16. The compound further displayed a solubility at 10 min in series [10] of 1.4 µM.
Take `C[C@H]1c2cccc(O)c2C(=O)C2=C(O)[C@]3(O)C(=O)C(C(N)=O)=C(O)[C@@H](N(C)C)[C@@H]3[C@@H](O)[C@@H]21` [DOXYCYCLINE ANHYDROUS]: the selectivity ratio in series [4] worked out at 4.
As to `COc1cc(NC(C)CCCN)c2ncccc2c1` (stereo not drawn) [PRIMAQUINE], the CC50 at 3 h in series [1] was more than 50 µM. Besides, the EC50 in the series with Plasmodium berghei worked out at 7.26 µM.

The record behind these values is ChEMBL document CHEMBL5634142, “Novel thienopyrimidones targeting hepatic and erythrocytic stages of Plasmodium parasites with increased microsomal stability” (Eur J Med Chem, 2023).
